In US20060079453A1, “Hla binding peptides and their uses” (priority 2002, published 2006):
pIC50: −log10 of the molar value. Like-named read-outs stand apart in the source and are kept apart here. No end group written: not given here.

Key:
Experiment in all cases: biochemical
Type in all cases: binding
[1] = biological target: HLA-DR DRB1*0701 (DR7) (Homo sapiens, UniProt P01903+P01911, A100R/A102G/A103Q/D57E/D86V/E43K/F76Y/K127E/L162R/M171V/P40G/Q125H/Q99D/R33Q/R42Y/R54Q/S133A/S66F/T210M/V115G/Y107V/Y59L/Y89S)
[2] = biological target: HLA-DR DRB5*0101 (DR51) (Homo sapiens, UniProt P01903+Q30154); details: DRB5 *0101
[3] = biological target: HLA-DR DRB1*0901 (DR9) (Homo sapiens, UniProt P01903+P01911, A100R/A103E/D57H/D86V/F55Y/F60I/F76Y/I96F/K127E/L162R/M171V/P40D/Q125H/Q99R/R33Q/R42F/S133A/S66N/T210M/V115G/W38K/Y107V/Y59G/Y89S)
[4] = biological target: HLA-DR DRB1*1501 (DR15) (Homo sapiens, UniProt P01903+P01911)
[5] = biological target: HLA-DR DRB4*0101 (DR53) (Homo sapiens, UniProt P01903+P13762, G164S)
[6] = biological target: HLA-DR DRB1*0802 (DR8) (Homo sapiens, UniProt P01903+P01911, A100R/A103L/A169T/F76Y/H45Y/I96F/K41T/L162R/M171V/P40S/Q125H/Q178H/Q39Y/Q99D/R218S/R42G/S66Y/V115G/W38E)
[7] = biological target: HLA-DR DRB1*1101 (DR11) (Homo sapiens, UniProt P01903+P01911, A100R/A169T/A87E/I96F/K41T/L162R/M171V/P40S/Q125H/Q178H/Q39Y/Q99D/R42S/S66Y/T262R/V115G/W38E); details: DRB1 *1101
HLA-DR DRB1*1101 (DR11), sequence (P01903 26-254 limits assumed, other chains not shown): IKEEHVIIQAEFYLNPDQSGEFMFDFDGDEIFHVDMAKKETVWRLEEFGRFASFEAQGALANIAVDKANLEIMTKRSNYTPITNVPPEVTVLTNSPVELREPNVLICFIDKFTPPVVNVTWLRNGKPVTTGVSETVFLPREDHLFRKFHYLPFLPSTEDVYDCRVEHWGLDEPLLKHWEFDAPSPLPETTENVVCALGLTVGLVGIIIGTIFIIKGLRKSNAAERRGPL

[8] = biological target: HLA-DR DRB1*1302 (DR13) (Homo sapiens, UniProt P01903+P01911, A100E/A169T/K41T/L162R/M171V/P40S/Q125H/Q178H/Q39Y/Q99D/R42S/S66N/T262R/V115G/W38E/Y61H)
HLA-DR DRB1*1302 (DR13), sequence (P01903 26-254 limits assumed, other chains not shown): as above

[9] = biological target: HLA-DR DRB1*0401 (DR4) (Homo sapiens, UniProt P01903+P01911, A100K/A169T/F76Y/I96L/K127E/L162R/M171V/N62H/P40V/Q125Y/R42H/S133A/S149N/S66Y/V115G/V209L/W38E)
[10] = biological target: HLA-DR DRB1*0101 (DR1) (Homo sapiens, UniProt P01903+P01911, A100R/D57E/F55L/F60I/F76Y/I96L/L162R/M171V/P40L/Q125E/R42F/V115G/Y59C)
[11] = biological target: HLA-DR DRB1*0301 (DR3) (Homo sapiens, UniProt P01903+P01911, A100K/A102G/A103R/A169T/F55Y/I96L/K41T/L162R/M171V/P40S/Q125H/Q178H/Q39Y/R42S/S66N/T106N/T262R/W38E/Y61H)
HLA-DR DRB1*0301 (DR3), sequence (P01903 26-254 limits assumed, other chains not shown): as above

Compound	pIC50 ([1]; DRB1 *0701)	pIC50 [2]	pIC50 ([3]; DRB1 *0901)	pIC50 ([4]; DRBI *1501)	pIC50 ([5]; DRB4 *0101)	pIC50 [6]	pIC50 [7]	pIC50 ([8]; DRBI *1302)	pIC50 ([9]; DRB1 *0401)	pIC50 ([10]; DRB1 *0101)	also measured
CSCC[C@H](NC(=O)[C@H](CCC(N)=O)NC(=O)[C@H](CC(C)C)NC(=O)CNC(=O)[C@H](CO)NC(=O)[C@@H](NC(=O)[C@@H](NC(=O)[C@@H](NC(=O)[C@@H](N)CC(=O)O)[C@@H](C)O)[C@@H](C)O)C(C)C)C(=O)N[C@@H](C)C(=O)N[C@@H](CC(C)C)C(=O)N[C@@H](CC(=O)O)C(=O)N[C@H](C(=O)N[C@@H](Cc1ccc(O)cc1)C(=O)N[C@@H](CC(N)=O)C(=O)O)C(C)C	4.83	< 3.70	5.54	5.98	6.02	< 3.61	< 4.30	5.46	5.35		
CC[C@H](C)[C@H](NC(=O)CNC(=O)[C@H](CCC(N)=O)NC(=O)[C@H](CC(C)C)NC(=O)[C@@H](NC(=O)CNC(=O)[C@H](CC(N)=O)NC(=O)[C@H](CS)NC(=O)[C@@H](NC(=O)[C@H](CC(C)C)NC(=O)[C@@H]1CCCN1C(=O)CN)C(C)C)C(C)C)C(=O)N[C@H](C(=O)N[C@@H](CO)C(=O)N[C@@H](Cc1c[nH]c2ccccc12)C(=O)O)[C@@H](C)O	5.31	5.18	4.49	5.20	6.19	5.38	6.04	7.31	7.52	5.76	
CC[C@H](C)[C@H](NC(=O)[C@H](CCCCN)NC(=O)[C@H](C)NC(=O)[C@@H]1CCCN1C(=O)[C@H](CCC(=O)O)NC(=O)[C@H](CO)NC(=O)[C@H](CC(C)C)NC(=O)[C@H](CCCNC(=N)N)NC(=O)[C@H](CC(C)C)NC(=O)[C@H](CC(C)C)NC(=O)[C@H](CCSC)NC(=O)[C@H](CC(C)C)NC(=O)[C@H](CC(=O)O)NC(=O)[C@@H](N)Cc1c[nH]cn1)C(=O)N[C@H](C(=O)O)[C@@H](C)O	6.96		7.37		7.92	6.26		9.08	5.51	7.80	
CC[C@H](C)[C@H](N)C(=O)N[C@@H](CO)C(=O)N[C@H](C(=O)N[C@H](C(=O)N[C@@H](CC(N)=O)C(=O)N[C@@H](CCC(=O)O)C(=O)N[C@@H](CC(=O)O)C(=O)NCC(=O)N[C@@H](CC(N)=O)C(=O)N[C@@H](CCC(=O)O)C(=O)N[C@H](C(=O)N[C@@H](Cc1ccccc1)C(=O)N[C@@H](CC(N)=O)C(=O)N[C@H](C(=O)N[C@@H](CO)C(=O)O)[C@@H](C)O)[C@@H](C)CC)[C@@H](C)CC)[C@@H](C)CC	< 4.64		< 4.28			< 3.91			< 4.89		pIC50 [11]: 6.25
CC[C@H](C)[C@H](NC(=O)[C@H](CO)NC(=O)[C@H](CC(C)C)NC(=O)[C@@H](NC(=O)[C@H](CC(C)C)NC(=O)[C@H](CC(=O)O)NC(=O)[C@H](Cc1c[nH]c2ccccc12)NC(=O)[C@@H](N)CCSC)C(C)C)C(=O)N[C@@H](C)C(=O)N[C@@H](CC(C)C)C(=O)N[C@@H](CO)C(=O)N[C@H](C(=O)NCC(=O)N[C@@H](CS)C(=O)N[C@H](C(=O)O)[C@@H](C)O)C(C)C	5.52	4.15	5.76	4.94	6.80	4.64	4.09	6.97	5.73	6.69	
CC[C@H](C)[C@H](NC(=O)[C@H](Cc1ccc(O)cc1)NC(=O)[C@@H]1CCCN1)C(=O)N[C@@H](CC(C)C)C(=O)N[C@@H](CC(C)C)C(=O)N[C@H](C(=O)N[C@@H](CO)C(=O)N[C@@H](CO)C(=O)N[C@@H](CCCCN)C(=O)N[C@H](C(=O)N[C@@H](CO)C(=O)N[C@H](C(=O)N[C@H](C(=O)N[C@@H](CCCCN)C(=O)N[C@@H](CC(=O)O)C(=O)O)C(C)C)[C@@H](C)O)C(C)C)C(C)C		7.49				7.92					pIC50 [1]: 7.42; pIC50 [10]: 8.96; pIC50 [4]: 7.66; pIC50 [5]: 6.97; pIC50 [8]: 8.14; pIC50 [9]: 7.19
DSSIEGNYTLRVDCT											pIC50 ([1]; read-out: DRB1 *0701): 4.84; pIC50 ([3]; read-out: DRB1 *0901): < 3.73; pIC50 ([6]; read-out: DRB1 *0802): < 3.79
FENLVAENVKPPKVD	3.92	4.20		< 4.29	5.03	< 4.60		5.52	5.62	7.25	
FIHFFTWGTMFVPKY	6.31	5.02		5.62		5.77		6.48	6.56		
IGYYDAQKLLEKMGG	< 4.08		4.33	5.70	4.87	5.08	< 4.54	5.24	4.90		
KCEFQDAYVILLSEKK	6.47	7.70		< 4.32	< 4.71	6.31		< 4.99	7.14	7.85	pIC50 [11]: 5.24
KPAVYTKVVHYRICWI											pIC50 ([1]; read-out: DRB1 *0701): 5.62; pIC50 ([10]; read-out: DRB1 *0101): 5.30; pIC50 ([3]; read-out: DRB1 *0901): 5.43; pIC50 ([6]; read-out: DRB1 *0802): 7.28
